As usually defined, the melting point is the temperature, or range, at which the solid turns liquid.

Regarding `Cc1nnc2n1-c1sc(CCc3ccc(CC(C)C)cc3)cc1C(c1ccccc1Cl)=NC2c1ccccc1` (configuration not stated), the melting point fell in the range of 170 to 172 °C.

In turn, `COC(=O)C1=Cc2cc(-c3ccc(N4CCOCC4)cc3)ccc2SCC1` returned a melting point of 154 to 156 °C.

As for `CN1CCCC1=Nc1ncnc2c1ncn2[C@H]1C=C[C@@H](O)C1` (racemic), the melting point fell in the range of 135 to 138 °C.

Take `CC(=O)OCc1cc(O)c2c(c1)C(=O)c1cccc(C(C)=O)c1C2=O`: the melting point lay in the range of 190 to 191 °C.

`CCn1c(C)c(C2(c3ccc(N(C)C)cc3N(C)C)OC(=O)c3ccccc32)c2ccccc21` (configuration not stated) came in with a melting point of 218 to 222 °C.

On to `COc1ccc(-c2c(Cl)ncn2-c2ccc(S(C)(=O)=O)cc2)cc1`, for which the melting point amounted to 205 °C.

In turn, `Cc1c(C=O)c2c(c(C)c1NC=O)C(c1ccc(C(C)C)cc1)CO2` (configuration not stated) displayed a melting point of 123 to 124 °C.

`COc1ccc(Cc2cc3cccc(-c4cccc(C(=O)NCCO)c4)c3s2)cn1` came in with a melting point of 138 to 139 °C.

In turn, `O=C(/C=C/c1ccc(OC(F)(F)F)cc1)/C=C/c1ccc(C(F)(F)F)cc1` yielded a melting point of 97 to 99 °C.

Take `CCCn1cc(-c2c(-c3ccccc3F)nn3ccncc23)ccc1=O`: the melting point fell in the range of 127 to 128 °C.

`O=C(O)Cc1c(C(=O)c2ccc(-c3ccco3)cc2)[nH]c2cc(Cl)ccc12` displayed a melting point of 230 to 232 °C.

Regarding `Cc1cc2c(cc1N)C(C)(C)CCC2(C)C`, the melting point was 94 to 95 °C.

In turn, `Nc1nc(Cl)cnc1-c1cc(Cl)cc(Cl)c1Cl` gave a melting point of 211 to 214 °C.

`CCCCc1cc(-c2nnn[nH]2)ncc1C(=O)O` came in with a melting point above 300 °C.

In the case of `CCOC(=O)CNc1ccc2c(c1)CCC2`, the melting point is 49 °C.

As for `Cc1cc(C)cc(Sc2c(C(C)C)nc(CCOC(N)=O)n2C)c1`, the melting point lay within 138 to 140 °C.

In the case of `CC(C)(C)OC(=O)N1CCC(C(=O)N2CCc3ccc4[nH]c(=O)c(=O)[nH]c4c3C2)CC1`, the melting point lay in the range of 283 to 286 °C.

The compound `O=C1NC(=O)C(c2ccccc2)(c2ccc(Br)cc2)N1` (configuration not stated) registered a melting point of 237 to 239 °C.

As for `Cc1csc(C(=O)C2C(=O)N(C(N)=O)c3cc(F)cnc32)c1` (configuration not stated), the melting point was above 250 °C.

Turning to `Cn1nc(-c2cccnc2)c2c(C(F)(F)F)cc(-c3cccc(CN4CCOCC4)c3)nc21`, the melting point was 155 °C.

In the case of `COc1cccc2c(=O)[nH]nc(C)c12`, the melting point fell in the range of 257 to 260 °C.

`CC(C)OC(=O)N1CCC(c2ccc3nc(-c4ccc(S(C)(=O)=O)cc4F)oc3c2)CC1` registered a melting point of 170 to 174 °C.

For `O=C(NCC1CCC(CNS(=O)(=O)c2ccc3ccccc3c2)CC1)C1CCc2ccccc2C1` (configuration not stated), the melting point is 225 to 226 °C.

As to `O=C(O)C1(c2ccccc2)Cc2ccccc2C1`, the melting point fell in the range of 193 to 195 °C.

Compound `Cc1cc(-c2nc3cc(Cl)cc(CCc4ccccn4)c3o2)[nH]n1` gave a melting point of 205 to 220 °C.

For the compound `C=CCn1c(C)nc(N2CCc3ccccc3CC2)c(C#N)c1=O`, the melting point was 141 to 144 °C.

`CC1(C)CC(=O)c2c(nc(C3CCCC3)c(C(=O)c3ccc(C(F)(F)F)cc3)c2-c2ccc(F)c(F)c2)C1` had a melting point of 210 to 212 °C.

In the case of `O=C(Nc1ccccc1N1CCc2ccccc21)c1ccccc1`, the melting point was in the range of 73 to 76 °C.

In turn, `O=c1[nH]c2ccc(Cl)cc2c(-c2ccccc2F)c1CO` came in with a melting point of 282 to 286 °C.

Regarding `Cc1c(C)c(N2CCN(c3ccc(C(F)(F)F)cc3)CC2)c(C)c2c1OC(C)(C)C2N1CCCC1` (configuration not stated), the melting point lay in the range of 140 to 141 °C.

For `CC12CC3OC3CC1CCC1C2CCC2(C)C(O)C(N3CCC(O)CC3)CC12` (configuration not stated), the melting point was in the range of 204 to 206 °C.

The compound `CCCCCCCCCCCCCCCCCCC(N)CN` (configuration not stated) displayed a melting point of 98 to 101 °C.

Regarding `CCOC1=C(C#N)S(=O)(=O)N=C1N`, the melting point was in the range of 236 to 238 °C.

In turn, `COc1cc(C(=O)Nc2c(Cl)cc3c(Br)n[nH]c3c2C(=O)NC2(C3CC3)CC2)n(-c2ncccc2Cl)n1` showed a melting point of 190 to 194 °C.

As to `C#CCN(c1nc(C)n(-c2ccc(Cl)cc2Cl)n1)c1cc(C)ccc1OC`, the melting point came to 116 °C.

As for `CN(C(=O)CCl)C1(c2ccccc2)Cc2ccccc2C1`, the melting point is 134 to 137 °C.

With `O=c1c2cccc(O)c2nc(-c2ccc(O)cc2)n1-c1ccc(OCCCl)cc1`, the melting point lay within 274 to 276 °C.

Turning to `O=C(O)COc1c(F)cc(SCCNS(=O)(=O)c2ccccc2)cc1F`, the melting point is 91 to 93 °C.

As for `CCCCOc1nc(N)c2[nH]c(=O)n(CCCCNS(=O)(=O)c3ccc(CCC(=O)OC)cc3)c2n1`, the melting point was in the range of 150 to 152 °C.

`N[C@@H](CCC(=O)O)C(=O)N[C@@H](Cc1ccccc1)C(=O)O` displayed a melting point of 147 to 149 °C.

`O=C1CCCCCN1C(=O)N1CCCCCC1=O`: the melting point came to 115 °C.

`CS(=O)(=O)Oc1ccc(-c2c3ccccc3c(C(F)(F)F)c3sc4ccccc4c23)cc1` gave a melting point of 215 to 216 °C.

`CSc1cccc2nc(SCCN3CCN(CC(=O)Nc4c(C(C)C)cccc4C(C)C)CC3)oc12` had a melting point of 120 to 121 °C.

With `CCCCCC=Cc1cccc2c(=O)[nH]c(-c3cc(S(=O)(=O)N4CCOCC4)ccc3OCCC)nc12`, the melting point came to 112 °C.

For `O=C1CCCc2cc(NS(=O)(=O)c3ccccc3)ccc21`, the melting point was 164 to 165 °C.

As for `N#Cc1ccc(NC2CCN(Cc3ccc(C(F)(F)F)cc3)CC2)nn1`, the melting point was determined as 243 °C.

With `C=C(C)c1ccc(-c2ccc(C(=C)C)cc2)cc1`, the melting point stood at 182 °C.

`c1cn2nc(N3CCNCC3)ccc2n1`: the melting point fell in the range of 122 to 123 °C.

In the case of `N#Cc1ccc2c(c1)C[C@H](NS(=O)(=O)c1ccccc1)CN2C(=O)c1ccccc1`, the melting point lay in the range of 174 to 175 °C.

Compound `CCOC(=O)C(C#N)=C(C)Nc1ccnc(-c2ccncc2)n1` came in with a melting point of 203 to 205 °C.

The compound `Cc1ccc(-c2ccc(C)cc2C=CC#Cc2ccc(C(=O)O)cc2)cc1` came in with a melting point of 61 to 67 °C.

`O=C(Nc1c(C(O)(C(F)(F)F)C(F)(F)F)ccc2ccccc12)c1ccccc1`: the melting point fell in the range of 190 to 192 °C.

The compound `Cc1cn(C2OC(CO)C(O)C2O)c(=O)[nH]c1=O` (configuration not stated) registered a melting point of 244 to 249 °C.

`CCCCCCCCCCCCCCCCCCS(=O)(=O)c1cc(C(=O)O)c2c(c1)c(=O)on2C` displayed a melting point of 177 to 179 °C.

Regarding `CN(C)C1(c2ccc(F)cc2)CCC(=CC(=O)N2CCC(c3c[nH]c4ccccc34)C2)CC1` (configuration not stated), the melting point lay within 109 to 112 °C.

Regarding `CCCCNc1cc(C(=O)O)cc(S(C)=O)c1Cl` (configuration not stated), the melting point was 158 °C.

In turn, `CCN(CC)CCNC(=O)c1nc2ccc(I)cc2[nH]1` showed a melting point of 136 to 138 °C.

As for `CN1C(=O)N(CCC(NS(=O)(=O)c2ccc(-c3ccc(Cl)cc3)cc2)C(=O)NO)C(=O)C1(C)C` (configuration not stated), the melting point lay within 117 to 120 °C.

Turning to `COc1c(C)c(N)c2c(c1C)C(c1ccc(C(C)C)cc1)C(C)(C)O2` (configuration not stated), the melting point fell in the range of 111 to 112 °C.

Compound `O=C(O)c1cn(C2CC2)c2c(F)c(F)c(F)c(NC(=O)C(F)(F)F)c2c1=O` showed a melting point of 188 °C.

In the case of `COCCNC(=O)c1ccc(Br)c(C)c1`, the melting point lay in the range of 79 to 81 °C.

`O=C1N(CCCCN2CCN(c3n[nH]c4cc(F)ccc34)CC2)CSC12CCCCC2` showed a melting point of 163 to 165 °C.

The compound `COc1ccc(S(=O)(=O)Nc2cccnc2Nc2ccc(F)cc2)cc1` registered a melting point of 196 to 197 °C.

In turn, `Cn1cc(S(=O)(=O)Cl)c(=O)c2ccc(C(F)(F)F)cc21` showed a melting point of 262 to 265 °C.

In turn, `CCn1ncc2c(NCC3CC3)c3ccccc3nc21` had a melting point of 228 to 230 °C.

`COc1cccc2c(Nc3ccccc3C)c(C(C)=O)cnc12` gave a melting point of 171 to 173 °C.

For `CC(C)(C)c1cccc(S(=O)(=O)n2c(Cc3ccc(C(=O)O)cc3)c(F)c3cc(C(F)(F)F)ccc32)c1`, the melting point was found to be 158 °C.

The compound `CC1(C)CC(=NO)CC(=NO)C1C#N` (configuration not stated) came in with a melting point of 139 to 140 °C.

Compound `Cc1cnc2c(C#N)c(C)nn2c1-c1ccccc1` gave a melting point of 208 to 210 °C.

For the compound `CC(C)CCSC1CC(CO)OC1n1ccc(=O)[nH]c1=O` (configuration not stated), the melting point fell in the range of 131 to 133 °C.

Consider `CCC(OCC1CC1)c1ccc(Cl)c2nc3n(c12)CCCN3c1ccc(Cl)cc1Cl` (configuration not stated), for which the melting point fell in the range of 159 to 160 °C.

In turn, `COc1ccc(Cn2cc(C(F)(F)F)ccc2=O)cc1` came in with a melting point of 84.2 to 86.1 °C.

Turning to `COc1cc2c(Nc3ccc(Cl)cc3F)ncnc2cc1OCc1ccnc(Br)c1`, the melting point was in the range of 210 to 212 °C.

On to `Nc1ccc(Oc2ccc(C(=O)c3ccc(C#Cc4ccccc4)cc3)cc2)cc1`, for which the melting point lay within 151 to 153 °C.

For the compound `O=CC(Br)c1ccc(Cl)cc1` (configuration not stated), the melting point came to 178 °C.

`CC(CF)(CF)C(=O)C(Oc1ccc(Cl)cc1)n1cnnc1` (configuration not stated) registered a melting point of 119 to 122 °C.

In turn, `CCOC(=O)c1nn(-c2ccc(OC)cc2)c2c1CCC2` showed a melting point of 108 to 109 °C.

Take `NC(=O)N1C(=O)/C(=C(\O)c2cccs2)c2cc(F)c(Cl)cc21`: the melting point lay within 239 to 241 °C.

Compound `CCOCCOc1cc(C(C)C)c(NC(=O)CN2CCN(CCCSc3nc4ccccc4o3)CC2)c(C(C)C)c1` registered a melting point of 115 to 117 °C.

For the compound `Cc1cc(-n2ccnc2)c2cccc(OCc3c(Cl)ccc(S(=O)(=O)N4CCC[C@H]4C(=O)NCC4CC4)c3Cl)c2n1`, the melting point was 100 °C.

The compound `COc1ccc2cccc(N3CCN(CCCCOc4ccc5c(n4)NC(=O)NCC5)CC3)c2c1` returned a melting point of 155 to 158 °C.

Take `COc1c(C(C)=O)cnc2c(N)cccc12`: the melting point lay in the range of 76 to 77 °C.

For `CN(C(c1ccccc1)c1ccccc1)S(=O)(=O)CC#N`, the melting point lay within 104 to 107 °C.

In the case of `CCOCCOC(=O)C(=O)Nc1nc(-c2cc(OC)ccc2OC)cs1`, the melting point was 140 to 141 °C.

In turn, `COC(=O)C(Cc1ccc([N+](=O)[O-])cc1)NC(=O)NCc1cccc(Oc2ccccc2)c1` (single isomer, unassigned; (+)) yielded a melting point of 112 to 114 °C.

`CCCn1nc(C)c2nc(C)nc(O)c21` yielded a melting point of 196 to 198 °C.

The compound `O=c1cc(-c2ccc3[nH]ncc3c2)oc2ncc(CN3CCOCC3)cc12` yielded a melting point of 293 °C.

For the origin of these results see a melting point compilation (Tetko et al.; mined from patent text by program, amines drawn as free bases though some values may be those of a salt).
